Source: patent publication US6002023A, “2-debenzoyl-2-acyl taxol derivatives and method for making same” (Virginia Tech Intellectural Properties, Inc., priority 1997, dated 1999)

Tested on: P-388 lymphocytic leukemia cells
Assay: cytotoxicity, cell culture assay using P-388 lymphocytic leukemia cells, compared with taxol
Assay type: cell-based
Conditions: for biological activity as compared with taxol (in words): P-388 cell culture assay; for ED50 /ED50 (taxol): P-388 leukemia, value of less than 1 = more active than taxol
Description: Acylation of 22 with various aromatic carboxylic acids in the presence of dicyclohexylcarbodiimide and 4-pyrrolidinopyridine has led to the preparation of various 2-debenzoyl-2-acyl taxols 13. […] For details of the cell culture assay, see Abbott, B. J., "Protocol 14 of Instruction 275," National Cancer Institute, National Institutes of Health, Jan. 24, 1978.

CC(=O)O[C@H]1C(=O)[C@@]2(C)[C@H]([C@H](OC(=O)c3cccc([N+](=O)[O-])c3)[C@]3(O)C[C@H](OC(=O)[C@H](O)[C@@H](NC(=O)c4ccccc4)c4ccccc4)C(C)=C1C3(C)C)[C@]1(OC(C)=O)CO[C@@H]1C[C@@H]2O [Compound 13c]
biological activity as compared with taxol (in words): much greater biological activity than taxol
ED50 /ED50 (taxol): 0.3

CC(=O)O[C@H]1C(=O)[C@@]2(C)[C@H]([C@H](OC(=O)COc3ccccc3)[C@]3(O)C[C@H](OC(=O)[C@H](O)[C@@H](NC(=O)c4ccccc4)c4ccccc4)C(C)=C1C3(C)C)[C@]1(OC(C)=O)CO[C@@H]1C[C@@H]2O [Compound 13x]
ED50 /ED50 (taxol): 0.7

CC(=O)O[C@H]1C(=O)[C@@]2(C)[C@H]([C@H](OC(=O)/C=C/c3ccccc3)[C@]3(O)C[C@H](OC(=O)[C@H](O)[C@@H](NC(=O)c4ccccc4)c4ccccc4)C(C)=C1C3(C)C)[C@]1(OC(C)=O)CO[C@@H]1C[C@@H]2O [Compound 13b]
biological activity as compared with taxol (in words): less active or about as active as taxol
ED50 /ED50 (taxol): 10

CC(=O)O[C@H]1C(=O)[C@@]2(C)[C@H]([C@H](OC(=O)c3cccc(Oc4ccccc4)c3)[C@]3(O)C[C@H](OC(=O)[C@H](O)[C@@H](NC(=O)c4ccccc4)c4ccccc4)C(C)=C1C3(C)C)[C@]1(OC(C)=O)CO[C@@H]1C[C@@H]2O [Compound 13r]
ED50 /ED50 (taxol): 4.3

CC(=O)O[C@H]1C(=O)[C@@]2(C)[C@H]([C@H](OC(=O)c3ccc([N+](=O)[O-])cc3)[C@]3(O)C[C@H](OC(=O)[C@H](O)[C@@H](NC(=O)c4ccccc4)c4ccccc4)C(C)=C1C3(C)C)[C@]1(OC(C)=O)CO[C@@H]1C[C@@H]2O [Compound 13dd]
ED50 /ED50 (taxol): 8.3

CC(=O)O[C@H]1C(=O)[C@@]2(C)[C@H]([C@H](OC(=O)c3cccc(N=[N+]=[N-])c3)[C@]3(O)C[C@H](OC(=O)[C@H](O)[C@@H](NC(=O)c4ccccc4)c4ccccc4)C(C)=C1C3(C)C)[C@]1(OC(C)=O)CO[C@@H]1C[C@@H]2O [Compound 13f, 2-debenzoyl-2-(m-azidobenzoyl)taxol]
biological activity as compared with taxol (in words): much greater biological activity than taxol
ED50 /ED50 (taxol): 0.002
antineoplastic activity relative to taxol, cell culture assay (P-388 leukemia in vitro) (fold activity versus taxol): 500 times

CC(=O)O[C@H]1C(=O)[C@@]2(C)[C@H]([C@H](OC(=O)c3cccc(C)c3)[C@]3(O)C[C@H](OC(=O)[C@H](O)[C@@H](NC(=O)c4ccccc4)c4ccccc4)C(C)=C1C3(C)C)[C@]1(OC(C)=O)CO[C@@H]1C[C@@H]2O [Compound 13n]
ED50 /ED50 (taxol): 0.04

CC(=O)O[C@H]1C(=O)[C@@]2(C)[C@H]([C@H](OC(=O)c3ccc(F)cc3)[C@]3(O)C[C@H](OC(=O)[C@H](O)[C@@H](NC(=O)c4ccccc4)c4ccccc4)C(C)=C1C3(C)C)[C@]1(OC(C)=O)CO[C@@H]1C[C@@H]2O [Compound 13y]
ED50 /ED50 (taxol): 0.5

CC(=O)O[C@H]1C(=O)[C@@]2(C)[C@H]([C@H](OC(=O)c3ccc(C(F)(F)F)cc3)[C@]3(O)C[C@H](OC(=O)[C@H](O)[C@@H](NC(=O)c4ccccc4)c4ccccc4)C(C)=C1C3(C)C)[C@]1(OC(C)=O)CO[C@@H]1C[C@@H]2O [Compound 13ee]
ED50 /ED50 (taxol): 30

CC(=O)O[C@H]1C(=O)[C@@]2(C)[C@H]([C@H](OC(=O)c3ccc4ccccc4c3)[C@]3(O)C[C@H](OC(=O)[C@H](O)[C@@H](NC(=O)c4ccccc4)c4ccccc4)C(C)=C1C3(C)C)[C@]1(OC(C)=O)CO[C@@H]1C[C@@H]2O [Compound 13u]
ED50 /ED50 (taxol): 10
